Laboratory results reported in patent US20130052137A1, “PARA AMINO BENZOIC ACID BASED NANOTUBES” (priority 2009, published 2013).

melting point [°C]	Compound
152 to 154	CCCCCCCCCCCC(=O)Nc1ccc(C(=O)Nc2ccccn2)cc1 [Compound 1a, N-(Pyridine-2-yl)-4-dodecanamido-benzamide]
140 to 142	CCCCCCCCCCCCCCCCCC(=O)Nc1ccc(C(=O)Nc2ccccn2)cc1 [Compound 1b, N-(Pyridin-2-yl)-4-stearamidobenzamide]
